Tested on: HepG2 cells
Test: Hepatoprotective effects in vitro against TBH oxidative damage
Details: MTT, TBH challenge

CC(C)(C)OO [TBH, Tertiary Butyl Hydro peroxide]
Survival (%): 52.53%
